Data as given in patent publication EP1205473A1, “VESAMICOL PIPERAZINE DERIVATIVES AND DRUGS CONTAINING THE SAME” (DAIICHI RADIOISOTOPE LABORATORIES, LTD., priority 1999, dated 2001).

Key:
vesamicol receptors [1] = molecular target: T1, vesamicol receptors (Rattus norvegicus, UniProt Q62666); assay: Inhibition experiment: inhibition of binding of radioactive-iodine-labeled DRC140 to P2 fractions; parameters: Synaptic vesicles were extracted and separated from the brain of a rat; from tissue; host or cells: rat brain without cerebellum: P2, crude synaptic vesicles, purified synaptic vesicles
T1 sequence (Q62666 1-530): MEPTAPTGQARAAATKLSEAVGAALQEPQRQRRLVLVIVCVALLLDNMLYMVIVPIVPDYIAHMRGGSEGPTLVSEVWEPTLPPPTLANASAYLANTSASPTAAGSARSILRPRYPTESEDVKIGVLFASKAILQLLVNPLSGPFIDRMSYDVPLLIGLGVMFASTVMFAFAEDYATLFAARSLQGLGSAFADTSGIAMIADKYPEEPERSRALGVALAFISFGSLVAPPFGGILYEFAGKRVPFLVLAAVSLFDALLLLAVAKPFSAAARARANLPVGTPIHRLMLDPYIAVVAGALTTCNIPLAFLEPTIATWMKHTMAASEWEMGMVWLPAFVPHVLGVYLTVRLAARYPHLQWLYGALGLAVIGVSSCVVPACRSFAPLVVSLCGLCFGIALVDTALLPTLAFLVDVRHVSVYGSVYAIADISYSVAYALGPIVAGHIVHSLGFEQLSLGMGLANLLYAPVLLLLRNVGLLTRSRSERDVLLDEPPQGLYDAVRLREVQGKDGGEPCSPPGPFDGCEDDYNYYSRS

sigma receptors = molecular target: T2, sigma receptors (Cavia porcellus, UniProt Q60492); assay: Receptor binding test: inhibition of tritium-labeled (+) pentazocine binding to brain homogenate; parameters: species or system male guinea pig
T2 construct: The brain was immediately extracted; The cerebellum was removed from the brain; from tissue; host or cells: guinea pig brain without cerebellum, membrane pellet
T2 sequence (Q60492 whole entry): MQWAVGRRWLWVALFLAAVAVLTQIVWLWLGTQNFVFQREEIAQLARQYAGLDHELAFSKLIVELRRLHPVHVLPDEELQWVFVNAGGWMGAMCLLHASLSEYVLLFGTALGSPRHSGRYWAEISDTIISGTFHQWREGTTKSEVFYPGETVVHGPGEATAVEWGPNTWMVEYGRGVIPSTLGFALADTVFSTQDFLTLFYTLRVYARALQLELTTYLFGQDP
Procedure: (§1) Properties relating to binding of the vesamicol piperazine derivatives of the present invention to various receptors were examined as follows. Specifically, ligands which combine with each receptor were incubated together with homogenates prepared as follows.
To measure affinity to sigma receptors, tritium-labeled (+) pentazocine was added to a brain homogenate prepared as follows. The vesamicol piperazine derivatives synthesized in the Examples were added at various concentrations, and the mixture was incubated for two hours at room temperature.
(§2) B (%) =((1 0 0 × [U])^(∩))/([ I C50 (])^(∩) (+ [U])^(∩)) [formula] wherein B(%) is the proportion of specific binding in the total binding, n indicates a Hill coefficient, and U is the concentration of unbound ligand.
A male guinea pig was anesthetized with ether and was decapitated. The brain was immediately extracted. The cerebellum was removed from the brain. 10 mM Tris-sucrose buffer solution (0.32 M sucrose + 10 mM Tris-HCl (pH 7.4)) was added in the amount of 10 ml/g of the tissue. The mixture was homogenized by a potter-type homogenizer for 6-10 strokes. The homogenate was centrifuged at 1,000 x g for 10 minutes at 4°C and the supernatant liquid was collected. The resulting pellets were suspended in the Tris-sucrose buffer solution at the concentration of 2 ml/g, followed by centrifugation at 1,000 x g for 10 minutes at 4°C. The supernatant liquids obtained by the two centrifugation at 1,000 x g were combined and centrifuged at 31,000 x g for 15 minutes at 4°C. The resulting pellets were suspended in a 10 mM Tris-HCl buffer solution (pH 7.4) at a concentration of 3 ml/g of tissue and incubated for 30 minutes at 25°C. After incubation, the suspension was centrifuged at 31,000 x g for 15 minutes at 4°C. The pellets obtained were suspended in a 10 mM Tris-HCl buffer solution (pH 7.4) to make a final concentration of 1.53 ml/g of tissue. The suspension was homogenized by a potter-type homogenizer for 5 strokes. The homogenate was stored at -80°C until the start of the experiment.

vesamicol receptors [2] = molecular target: T1, vesamicol receptors; assay: Receptor binding test: inhibition of I-125 labeled 5-iodobenzo vesamicol binding to brain homogenate; parameters: from tissue; host or cells: rat brain without cerebellum, P2 fraction; species or system Male Wistar rats; conditions: Inhibitive concentration at 50% (IC50), Vesamicol receptor, Table 5; incubated three hours at 37°C; no unit printed in table (b19 gives nM for DRC140)
Procedure: as §1
To measure affinity of vesamicol receptors, I-125 labeled 5-iodobenzo vesamicol (synthesized and labeled according to Jung et al., J. Med. Chem. 33, 2065-2068, 1990) was added to a brain homogenate prepared as follows. The vesamicol piperazine derivatives synthesized in the Examples were added at various concentrations. The mixture was then incubated for three hours at 37°C.
as §2
Male Wistar rats were anesthetized with ether and were decapitated. The brains were immediately extracted. The cerebella were removed from the brains. 0.32 M sucrose (containing 4 mM HEPES (pH 7.4)) in an amount of five times the wet amount (weight) of this sample was added. The sample was homogenized by a potter-type homogenizer for 12 strokes while cooling with ice. 0.32 M sucrose in the same amount as the homogenate (total: 10 times the wet amount of the original sample) was added. The suspension thus obtained was centrifuged for 5 minutes at 1,000 x g. The precipitate was removed. The supernatant liquid was centrifuged at 9,200 x g for 15 minutes to separate the precipitate from the supernatant liquid. P2 fractions were suspended in a Tris-HCl buffer (pH 7.4) for binding experiments and stored at -80°C until the start of the binding experiment.

[3] = inhibitive concentration at 50% (IC50), Receptor Vesamicol
[4] = inhibitive concentration at 50% (IC50), Receptor Sigma-1
[5] = Inhibitive concentration at 50% (IC50), Sigma α-1 receptor
[6] = Table 7, P2 fractions, inhibition of radioactive-iodine-labeled DRC140 binding, Binding site names the inhibitor's own site, read-out: IC50 (nM) Average ± S.D

Compound | IC50 (vesamicol receptors [1]; [3]) [nM] | IC50 (sigma receptors; [4]) [nM] | IC50 (vesamicol receptors [2]) [nM] | further results
CC(=O)Nc1ccccc1N1CCN([C@@H]2Cc3c(I)cccc3C[C@H]2O)CC1 (racemic) [DRF401, (±)-trans-5-iodo-2-hydroxy-3-[4-[N-acetyl-2-aminophenyl]-piperazinyl]tetralin] | 0.89 |  |  | 
CNC(=O)Oc1ccc2c(c1)[C@]1(C)CCN(C)[C@@H]1N2C [Physostigmine, reference compound] |  |  |  | IC50 (vesamicol receptors [1]; IC50 (nM) Average ± S.D): > 5000 nM
COc1ccccc1N1CCN([C@@H]2Cc3c(I)cccc3C[C@H]2O)CC1 (racemic) [DRF400, (±)-trans-5-iodo-2-hydroxy-3-[4-[2-methoxyphenyl]piperazinyl]tetralin] | 1.09 | 28800 |  | 
O[C@@H]1Cc2cccc(I)c2C[C@H]1N1CCN(c2ccccn2)CC1 (racemic) [DRE328, (±)-trans-5-iodo-2-hydroxy-3-[4-[2-pyridyl]-piperazinyl]tetralin] |  |  | 38.4 | 
Nc1ccccc1N1CCN([C@@H]2Cc3c(I)cccc3C[C@H]2O)CC1 (single isomer, unassigned) [DRF419, (-)-trans-5-iodo-2-hydroxy-3-[4-[2-aminophenyl]piperazinyl]tetralin] | 0.3 | 4710 |  | 
Nc1ccccc1N1CCN([C@@H]2Cc3c(I)cccc3C[C@H]2O)CC1 (racemic) [DRF402, (±)-trans-5-iodo-2-hydroxy-3-[4-[2-aminophenyl]piperazinyl]tetralin] | 0.63 |  |  | 
Cc1ccc(C)c(N2CCN([C@@H]3Cc4cc(I)ccc4C[C@H]3O)CC2)c1 (racemic) [DRE365, (±)-trans-6-iodo-2-hydroxy-3-[4-[2,5-dimethylphenyl]piperazinyl]tetralin] |  |  | 2.9 | 
Cc1ccccc1N1CCN([C@@H]2Cc3c(I)cccc3C[C@H]2O)CC1 (racemic) [DRE334, (±)-trans-5-iodo-2-hydroxy-3-[4-[2-methylphenyl]piperazinyl]tetralin] | 0.74 | 4480 | 0.72 | IC50 (sigma receptors; [5]): 109 nM
5-iodobenzovesamicol [(+)-IBVM, reference compound] |  |  |  | IC50 (vesamicol receptors [1]; read-out: inhibitive concentration at 50% (IC50), Receptor Vesamicol, Table 9, high purity derivatives (HPLC purified), I-125 labeled DRC140, P2 fractions, 3 hours at 37°C, unit inferred): 0.5 nM
Cc1cccc(N2CCN([C@@H]3Cc4c(I)cccc4C[C@H]3O)CC2)c1 (racemic) [DRF380, (±)-trans-5-iodo-2-hydroxy-3-[4-[3-methylphenyl]piperazinyl]tetralin] | 2.47 | 16300 | 3.69 | 
Nc1ccccc1N1CCN([C@@H]2Cc3cc(I)ccc3C[C@H]2O)CC1 (racemic) [DRG446, (±)-trans-6-iodo-2-hydroxy-3-[4-[2-aminophenyl]piperazinyl]tetralin] | 0.38 | 544 |  | 
CC1=NN=C(c2ccc(N)cc2)c2cc3c(cc2C1)OCO3 [GYKI52466, reference compound] |  |  |  | IC50 (vesamicol receptors [1]; IC50 (nM) Average ± S.D): > 5000 nM
COc1ccc(C)c(N2CCN([C@@H]3Cc4c(I)cccc4C[C@H]3O)CC2)c1 (racemic) [DRE378, (±)-trans-5-iodo-2-hydroxy-3-[4-[5-methoxy-2-methylphenyl]piperazinyl]tetralin] |  |  | 5.09 | 
Cc1ccc(C)c(N2CCN([C@@H]3Cc4ccc(I)cc4C[C@H]3O)CC2)c1 (racemic) [DRE366, (±)-trans-7-iodo-2-hydroxy-3-[4-[2,5-dimethylphenyl]-piperazinyl]tetralin] | 0.88 | 203 | 1.14 | IC50 (sigma receptors; [5]): 203 nM
Cc1ccccc1N1CCN([C@@H]2Cc3c(I)cccc3C[C@H]2O)CC1 (single isomer, unassigned) [DRE341, (+)-trans-5-iodo-2-hydroxy-3-[4-[2-methylphenyl]piperazinyl]tetralin] | 1.96 |  |  | 
CN(C(=O)Cc1ccc(Cl)c(Cl)c1)C(CN1CCCC1)c1cccc(OCC(=O)O)c1 (stereo not drawn) [ICI204, 448, reference compound] |  |  |  | IC50 (vesamicol receptors [1]; IC50 (nM) Average ± S.D): > 5000 nM
COc1ccccc1N1CCN(CCCNc2c(C)c(=O)n(C)c(=O)n2C)CC1 [5-Methylurapidil, reference compound] |  |  |  | IC50 (vesamicol receptors [1]; IC50 (nM) Average ± S.D): > 5000 nM
Cc1ccccc1N1CCN([C@@H]2Cc3cccc(I)c3C[C@H]2O)CC1 (racemic) [DRE335, (+)-trans-8-iodo-2-hydroxy-3-[4-[2-methylphenyl]piperazinyl]tetralin] |  |  | 2.8 | 
COC(=O)[C@H]1[C@H]2C[C@@H]3c4[nH]c5cc(OC)ccc5c4CCN3C[C@H]2C[C@@H](OC(=O)c2cc(OC)c(OC)c(OC)c2)[C@@H]1OC [Reserpine, reference compound] |  |  |  | IC50 (vesamicol receptors [1]; [6]): > 5000 nM
Cc1ccc(C)c(N2CCN([C@@H]3Cc4c(I)cccc4C[C@H]3O)CC2)c1 (racemic) [DRE348, (±)-trans-5-iodo-2-hydroxy-3-[4-[2,5-dimethylphenyl]piperazinyl]tetralin] | 1.16 | 5570 | 0.78 | IC50 (sigma receptors; [5]): 1500 nM
CCc1ccccc1N1CCN([C@@H]2Cc3c(I)cccc3C[C@H]2O)CC1 (racemic) [DRE353, (±)-trans-5-iodo-2-hydroxy-3-[4-[2-ethylphenyl]piperazinyl]tetralin] | 1.1 | 5110 | 8.74 | IC50 (sigma receptors; [5]): 6900 nM
Cc1ccc(I)cc1N1CCN([C@@H]2Cc3c(N)cccc3C[C@H]2O)CC1 (racemic) [DRF383, (±)-trans-5-amino-2-hydroxy-3-[4-[5-iodo-2-methylphenyl]-piperazinyl]tetralin] | 8.47 |  | 8.74 | IC50 (sigma receptors; [5]): 6900 nM
Cc1cccc(C)c1N1CCN([C@@H]2Cc3c(I)cccc3C[C@H]2O)CC1 (racemic) [DRF382, (±)-trans-5-iodo-2-hydroxy-3-[4-[2,6-dimethylphenyl]piperazinyl]tetralin] | 6.94 |  | 5.04 | IC50 (sigma receptors; [5]): 1300 nM
COc1ccccc1N1CCN(CCCCN2C(=O)c3ccccc3C2=O)CC1 [NAN-190, reference compound] |  |  |  | IC50 (vesamicol receptors [1]; [6]): > 5000 nM
OC1CCCCC1N1CCC(c2ccccc2)CC1 (single isomer, unassigned; (+)) [(+)-Vesamicol, 2-(4-phenyl-piperidino)cyclohexanol, reference compound] |  |  |  | IC50 (vesamicol receptors [1]; IC50 (nM) Average ± S.D): > 5000 nM
Oc1ccccc1N1CCN([C@@H]2Cc3c(I)cccc3C[C@H]2O)CC1 (racemic) [DRF403, (±)-trans-5-iodo-2-hydroxy-3-[4-[2-hydroxyphenyl]piperazinyl]tetralin] | 2.42 | 3030 |  | 
